Bridge positions count the residues as written; N and C are the ends. Square brackets hold non-standard residues; d marks the D form. Peptide text beside a SMILES is read from it. * marks the point of attachment. ξ: configuration not given here. Bip = N[C@@H](Cc1ccc(-c2ccccc2)cc1)C(=O)O; Phe(3-Me) = Cc1cccc(C[C@H](N)C(=O)O)c1; 3Thi = N[C@@H](Cc1ccsc1)C(=O)O; Cha = N[C@@H](CC1CCCCC1)C(=O)O; Cit = NC(=O)NCCC[C@H](N)C(=O)O; Ile(3ξ) = CCC(C)[C@H](N)C(=O)O; Thr(3ξ) = CC(O)[C@H](N)C(=O)O; Carboxymethyl = O=C(O)C*; Orn = NCCC[C@H](N)C(=O)O; Aun = NCCCCCCCCCCC(=O)O; Dab = NCC[C@H](N)C(=O)O; Dap = NC[C@H](N)C(=O)O; AEEA = NCCOCCOCC(=O)O
Target: T1, PD-1/PD-L1 interaction (PE-labeled human PD-L1-Ig binding to Jurkat cell line over-expressing human PD-1) (Homo sapiens, UniProt Q15116)
T1 construct: expressed in transfected cells; host or cells: Jurkat
T1 sequence (Q15116 25-288): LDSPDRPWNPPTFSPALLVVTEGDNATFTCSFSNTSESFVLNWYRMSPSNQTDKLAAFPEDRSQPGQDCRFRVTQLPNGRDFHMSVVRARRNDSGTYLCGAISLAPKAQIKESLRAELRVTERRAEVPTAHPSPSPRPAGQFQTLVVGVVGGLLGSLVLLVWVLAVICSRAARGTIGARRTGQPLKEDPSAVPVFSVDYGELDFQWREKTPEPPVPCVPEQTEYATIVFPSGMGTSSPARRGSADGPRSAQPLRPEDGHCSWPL
Assay: Jurkat-PD-1 Cell Binding High-Content Screening Assay (CBA)
Assay type: cell-based
Details: Jurkat cell line over-expressing human PD-1; PE-labeled PD-L1-Ig 20 nM final; read-out: Jurkat hPD1-PDL1 IC50
In short: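 Jurkat cells over-expressing human PD-1 (8×10^3 per well, DMEM/10% FCS) preincubated with compound 2 h at 37° C, then PE-labeled human PD-L1-Ig (20 nM final) added for 1 h. Cells fixed with paraformaldehyde, Hoechst-stained, and bound fluorescence quantified by high-content imaging.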

IC50 | Structure (SMILES)
42.2 nM | CC(C)C[C@H]1NC(=O)[C@H](CCN)NC(=O)[C@H](C(C)C)NC(=O)[C@H](Cc2ccc(-c3ccccc3)cc2)NC(=O)[C@H](C(C)C)NC(=O)[C@H](Cc2c[nH]c3ccccc23)NC(=O)[C@H](CC(=O)O)NC(=O)[C@H](Cc2ccc(OCC(=O)O)cc2)NC(=O)[C@H](Cc2ccsc2)NC(=O)CSC[C@@H](C(=O)NCCOCCOCC(=O)NCCCCCCCCCCC(=O)O)NC(=O)[C@H](C(C)O)NC(=O)[C@H](C(C)C)NC(=O)[C@H](CC2CCCCC2)NC(=O)[C@H](CCN)NC1=O (stereo partly drawn) [Compound 3280] ({CH2CO}-[3Thi]Y(Carboxymethyl)DWV[Bip]V[Dab][dL][Dab][Cha]V[Thr(3ξ)]C[AEEA][Aun]-OH; thioether N-14)
98.7 nM | CC(C)C[C@H]1NC(=O)[C@H](CCN)NC(=O)[C@H](C(C)C)NC(=O)[C@H](Cc2ccc(-c3ccccc3)cc2)NC(=O)[C@H](C(C)C)NC(=O)[C@H](Cc2c[nH]c3ccccc23)NC(=O)[C@H](CC(=O)O)NC(=O)[C@H](Cc2ccc(OCC(=O)O)cc2)NC(=O)[C@H](Cc2ccsc2)NC(=O)CSC[C@@H](C(=O)N[C@@H](CCCN)C(=O)NCCCCCCCCCCC(=O)O)NC(=O)[C@H](C(C)O)NC(=O)[C@H](C(C)C)NC(=O)[C@H](CC2CCCCC2)NC(=O)[C@H](CCN)NC1=O (stereo partly drawn) [Compound 3281] ({CH2CO}-[3Thi]Y(Carboxymethyl)DWV[Bip]V[Dab][dL][Dab][Cha]V[Thr(3ξ)]C[Orn][Aun]-OH; thioether N-14)
119 nM | CC(C)C[C@H]1NC(=O)[C@H](CCN)NC(=O)[C@H](C(C)C)NC(=O)[C@H](Cc2ccc(-c3ccccc3)cc2)NC(=O)[C@H](C(C)C)NC(=O)[C@H](Cc2c[nH]c3ccccc23)NC(=O)[C@H](CC(=O)O)NC(=O)[C@H](Cc2ccc(OCC(=O)O)cc2)NC(=O)[C@H](Cc2ccsc2)NC(=O)CSC[C@@H](C(=O)N[C@@H](CCN)C(=O)NCCCCCCCCCCC(=O)O)NC(=O)[C@H](C(C)O)NC(=O)[C@H](C(C)C)NC(=O)[C@H](CC2CCCCC2)NC(=O)[C@H](CCN)NC1=O (stereo partly drawn) [Compound 3282] ({CH2CO}-[3Thi]Y(Carboxymethyl)DWV[Bip]V[Dab][dL][Dab][Cha]V[Thr(3ξ)]C[Dab][Aun]-OH; thioether N-14)
13.8 nM | CC(C)C[C@H]1NC(=O)[C@H](CCN)NC(=O)[C@H](C(C)C)NC(=O)[C@H](Cc2ccc(-c3ccccc3)cc2)NC(=O)[C@H](C(C)C)NC(=O)[C@H](Cc2c[nH]c3ccccc23)NC(=O)[C@H](CC(=O)O)NC(=O)[C@H](Cc2ccc(OCC(=O)O)cc2)NC(=O)[C@H](Cc2ccsc2)NC(=O)CSC[C@@H](C(=O)NCCOCCOCC(=O)N[C@@H](CCN)C(=O)NCCCCCCCCCCC(=O)O)NC(=O)[C@H](CCCNC(=N)N)NC(=O)[C@H](C(C)C)NC(=O)[C@H](CC2CCCCC2)NC(=O)[C@H](CCN)NC1=O [Compound 3283] ({CH2CO}-[3Thi]Y(Carboxymethyl)DWV[Bip]V[Dab][dL][Dab][Cha]VRC[AEEA][Dab][Aun]-OH; thioether N-14)
10.2 nM | CC(C)C[C@H]1NC(=O)[C@H](CCN)NC(=O)[C@H](C(C)C)NC(=O)[C@H](Cc2ccc(-c3ccccc3)cc2)NC(=O)[C@H](C(C)C)NC(=O)[C@H](Cc2c[nH]c3ccccc23)NC(=O)[C@H](CC(=O)O)NC(=O)[C@H](Cc2ccc(OCC(=O)O)cc2)NC(=O)[C@H](Cc2ccsc2)NC(=O)CSC[C@@H](C(=O)NCCOCCOCC(=O)N[C@@H](CCN)C(=O)NCCCCCCCCCCC(=O)O)NC(=O)[C@H](CCCN)NC(=O)[C@H](C(C)C)NC(=O)[C@H](CC2CCCCC2)NC(=O)[C@H](CCN)NC1=O [Compound 3284] ({CH2CO}-[3Thi]Y(Carboxymethyl)DWV[Bip]V[Dab][dL][Dab][Cha]V[Orn]C[AEEA][Dab][Aun]-OH; thioether N-14)
9.3 nM | CCC(C)[C@@H]1NC(=O)[C@H](Cc2ccc(-c3ccccc3)cc2)NC(=O)[C@H](C(C)C)NC(=O)[C@H](Cc2c[nH]c3ccccc23)NC(=O)[C@H](CC(=O)O)NC(=O)[C@H](Cc2ccc(OCC(=O)O)cc2)NC(=O)[C@H](CCCNC(=N)N)NC(=O)CSC[C@@H](C(=O)N[C@H](CC(N)=O)C(=O)NCCCCCCCCCCC(=O)O)NC(=O)[C@H](CCCN)NC(=O)[C@H](C(C)C)NC(=O)[C@H](CC2CCCCC2)NC(=O)[C@H](CCN)NC(=O)[C@@H](CC(C)C)NC(=O)[C@H](CCN)NC1=O (stereo partly drawn) [Compound 3285] ({CH2CO}-RY(Carboxymethyl)DWV[Bip][Ile(3ξ)][Dab][dL][Dab][Cha]V[Orn]C[dN][Aun]-OH; thioether N-14)
8.3 nM | CC(C)C[C@H]1NC(=O)[C@H](CCN)NC(=O)[C@H](C(C)C)NC(=O)[C@H](Cc2ccc(-c3ccccc3)cc2)NC(=O)[C@H](C(C)C)NC(=O)[C@H](Cc2c[nH]c3ccccc23)NC(=O)[C@H](CC(=O)O)NC(=O)[C@H](Cc2ccc(OCC(=O)O)cc2)NC(=O)[C@H](Cc2ccsc2)NC(=O)CSC[C@@H](C(=O)N[C@H](CC(N)=O)C(=O)NCCCCCCCCCCC(=O)O)NC(=O)[C@H](CCCCN)NC(=O)[C@H](C(C)C)NC(=O)[C@H](CC2CCCCC2)NC(=O)[C@H](CCN)NC1=O [Compound 3286] ({CH2CO}-[3Thi]Y(Carboxymethyl)DWV[Bip]V[Dab][dL][Dab][Cha]VKC[dN][Aun]-OH; thioether N-14)
10.8 nM | CC(C)C[C@H]1NC(=O)[C@H](CCCN)NC(=O)[C@H](C(C)C)NC(=O)[C@H](Cc2ccc(-c3ccccc3)cc2)NC(=O)[C@H](C(C)C)NC(=O)[C@H](Cc2c[nH]c3ccccc23)NC(=O)[C@H](CC(=O)O)NC(=O)[C@H](Cc2ccc(OCC(=O)O)cc2)NC(=O)[C@H](CCCNC(=N)N)NC(=O)CSC[C@@H](C(=O)N[C@@H](CCN)C(=O)NCCCCCCCCCCC(=O)O)NC(=O)[C@H](CN)NC(=O)[C@H](C(C)C)NC(=O)[C@H](CC2CCCCC2)NC(=O)[C@H](CCN)NC1=O [Compound 3287] ({CH2CO}-RY(Carboxymethyl)DWV[Bip]V[Orn][dL][Dab][Cha]V[Dap]C[Dab][Aun]-OH; thioether N-14)
13.7 nM | CC(C)C[C@H]1NC(=O)[C@H](CCCN)NC(=O)[C@H](C(C)C)NC(=O)[C@H](Cc2ccc(-c3ccccc3)cc2)NC(=O)[C@H](C(C)C)NC(=O)[C@H](Cc2c[nH]c3ccccc23)NC(=O)[C@H](CC(=O)O)NC(=O)[C@H](Cc2ccc(OCC(=O)O)cc2)NC(=O)[C@H](CCCNC(=N)N)NC(=O)CSC[C@@H](C(=O)N[C@@H](CCN)C(=O)NCCCCCCCCCCC(=O)O)NC(=O)[C@H](CCN)NC(=O)[C@H](C(C)C)NC(=O)[C@H](CC2CCCCC2)NC(=O)[C@H](CCN)NC1=O [Compound 3288] ({CH2CO}-RY(Carboxymethyl)DWV[Bip]V[Orn][dL][Dab][Cha]V[Dab]C[Dab][Aun]-OH; thioether N-14)
13 nM | CC(C)C[C@H]1NC(=O)[C@H](CCCN)NC(=O)[C@H](C(C)C)NC(=O)[C@H](Cc2ccc(-c3ccccc3)cc2)NC(=O)[C@H](C(C)C)NC(=O)[C@H](Cc2c[nH]c3ccccc23)NC(=O)[C@H](CC(=O)O)NC(=O)[C@H](Cc2ccc(OCC(=O)O)cc2)NC(=O)[C@H](CCCNC(=N)N)NC(=O)CSC[C@@H](C(=O)N[C@@H](CCN)C(=O)NCCCCCCCCCCC(=O)O)NC(=O)[C@H](CCCN)NC(=O)[C@H](C(C)C)NC(=O)[C@H](CC2CCCCC2)NC(=O)[C@H](CCN)NC1=O [Compound 3289] ({CH2CO}-RY(Carboxymethyl)DWV[Bip]V[Orn][dL][Dab][Cha]V[Orn]C[Dab][Aun]-OH; thioether N-14)
39.5 nM | CC(C)C[C@H]1NC(=O)[C@H](CCCN)NC(=O)[C@H](C(C)C)NC(=O)[C@H](Cc2ccc(-c3ccccc3)cc2)NC(=O)[C@H](C(C)C)NC(=O)[C@H](Cc2c[nH]c3ccccc23)NC(=O)[C@H](CC(=O)O)NC(=O)[C@H](Cc2c[nH]cn2)NC(=O)[C@H](CCCNC(=N)N)NC(=O)CSC[C@@H](C(=O)N[C@@H](CCN)C(=O)NCCCCCCCCCCC(=O)O)NC(=O)[C@H](CCCCN)NC(=O)[C@H](C(C)C)NC(=O)[C@H](CC2CCCCC2)NC(=O)[C@H](CCN)NC1=O [Compound 3290] ({CH2CO}-RHDWV[Bip]V[Orn][dL][Dab][Cha]VKC[Dab][Aun]-OH; thioether N-14)
6.1 nM | Cc1cccc(C[C@@H]2NC(=O)[C@H](CC(=O)O)NC(=O)[C@H](Cc3ccc(OCC(=O)O)cc3)NC(=O)[C@H](CCCNC(=N)N)NC(=O)CSC[C@@H](C(=O)N[C@@H](CCN)C(=O)NCCCCCCCCCCC(=O)O)NC(=O)[C@H](CCCNC(N)=O)NC(=O)[C@H](C(C)C)NC(=O)[C@H](CC3CCCCC3)NC(=O)[C@H](CCN)NC(=O)[C@@H](CC(C)C)NC(=O)[C@H](CCCN)NC(=O)[C@H](C(C)C)NC(=O)[C@H](Cc3ccc(-c4ccccc4)cc3)NC(=O)[C@H](C(C)C)NC2=O)c1 [Compound 3291] ({CH2CO}-RY(Carboxymethyl)D[Phe(3-Me)]V[Bip]V[Orn][dL][Dab][Cha]V[Cit]C[Dab][Aun]-OH; thioether N-14)
12 nM | Cc1cccc(C[C@@H]2NC(=O)[C@H](CC(=O)O)NC(=O)[C@H](Cc3ccc(OCC(=O)O)cc3)NC(=O)[C@H](CCCNC(=N)N)NC(=O)CSC[C@@H](C(=O)N[C@@H](CCN)C(=O)NCCCCCCCCCCC(=O)O)NC(=O)[C@H](CCCN)NC(=O)[C@H](C(C)C)NC(=O)[C@H](CC3CCCCC3)NC(=O)[C@H](CCN)NC(=O)[C@@H](CC(C)C)NC(=O)[C@H](CCCN)NC(=O)[C@H](C(C)C)NC(=O)[C@H](Cc3ccc(-c4ccccc4)cc3)NC(=O)[C@H](C(C)C)NC2=O)c1 [Compound 3292] ({CH2CO}-RY(Carboxymethyl)D[Phe(3-Me)]V[Bip]V[Orn][dL][Dab][Cha]V[Orn]C[Dab][Aun]-OH; thioether N-14)
5 nM | Cc1cccc(C[C@@H]2NC(=O)[C@H](CC(=O)O)NC(=O)[C@H](Cc3ccc(OCC(=O)O)cc3)NC(=O)[C@H](CCCNC(=N)N)NC(=O)CSC[C@@H](C(=O)NCCOCCOCC(=O)N[C@@H](CCN)C(=O)NCCCCCCCCCCC(=O)O)NC(=O)[C@H](CCCCN)NC(=O)[C@H](C(C)C)NC(=O)[C@H](CC3CCCCC3)NC(=O)[C@H](CN)NC(=O)[C@@H](CC(C)C)NC(=O)[C@H](CCCN)NC(=O)[C@H](C(C)C)NC(=O)[C@H](Cc3ccc(-c4ccccc4)cc3)NC(=O)[C@H](C(C)C)NC2=O)c1 [Compound 3293] ({CH2CO}-RY(Carboxymethyl)D[Phe(3-Me)]V[Bip]V[Orn][dL][Dap][Cha]VKC[AEEA][Dab][Aun]-OH; thioether N-14)

— patent US20260022142A1, “MACROCYCLIC IMMUNOMODULATORS” (Bristol-Myers Squibb Company, priority 2022, published 2026)
